This is an account of results in patent US6737245B1, “Luciferase expression cassettes and methods of use” (priority 1999, dated 2004).

The data set is classed as in vivo. The note with it: four mice, IP at 0, 2, 4 and 6 hr, 500 μl of 0.1% and 0.01%, observed over 24 hours. The protocol: Four mice were injected IP at 0, 2, 4 and 6 hr with 500 μl volumes of n-decyl aldehyde at concentrations of 0.1% and 0.01%. Aldehyde solutions were prepared as follows: 100 μl of aldehyde was diluted in 900 μl of ethanol. 10 μl of this 10% solution was then diluted into 990 μl of sterile phosphate buffered saline (PBS) pH 7.4 to give a 0.1% final volume of aldehyde solution. The animals were observed over a 24-hour period.

Take `CCCCCCCCCC=O` [n-decyl aldehyde]: the “symptoms of illness or abnormal behavior” value was “None of the mice showed any apparent symptoms of illness or abnormal behavior”.
